# Molecular target: Human α2δ-1 subunit of Cav2.2 calcium channel (Homo sapiens, UniProt P54289)
# Assay: Human α2δ-1 subunit of Cav2.2 calcium channel assay ([3H]-Gabapentin radioligand binding)
# Details: Human α2δ-1 enriched membranes, 15 nM [3H]-Gabapentin, 60 min at 27 °C
# Procedure: Human α2δ-1 subunit of Cav2.2 calcium channel assay
# Human α2δ-1 enriched membranes (2.5 µg) were incubated with 15 nM of radiolabeled [3H]-Gabapentin in assay buffer containing Hepes-KOH 10mM, pH 7.4. NSB (non specific binding) was measured by adding 10 µM pregabalin. The binding of the tested compound was measured at either one concentration (% inhibition at 1 or 10 µM) or five different concentrations to determine affinity values (Ki). After 60 min incubation at 27 °C, binding reaction was terminated by filtering through Multiscreen GF/C (Millipore) presoaked in 0.5 % polyethyleneimine in Vacuum Manifold Station, followed by 3 washes with ice-cold filtration buffer containing 50 mM Tris-HCI, pH 7.4. Filter plates were dried at 60 °C for 1 h and 30 µL of scintillation cocktail were added to each well before radioactivity reading. Readings were performed in a Trilux 1450 Microbeta radioactive counter (Perkin Elmer).
# Chain of Human α2δ-1 subunit of Cav2.2 calcium channel (P54289 25-1103): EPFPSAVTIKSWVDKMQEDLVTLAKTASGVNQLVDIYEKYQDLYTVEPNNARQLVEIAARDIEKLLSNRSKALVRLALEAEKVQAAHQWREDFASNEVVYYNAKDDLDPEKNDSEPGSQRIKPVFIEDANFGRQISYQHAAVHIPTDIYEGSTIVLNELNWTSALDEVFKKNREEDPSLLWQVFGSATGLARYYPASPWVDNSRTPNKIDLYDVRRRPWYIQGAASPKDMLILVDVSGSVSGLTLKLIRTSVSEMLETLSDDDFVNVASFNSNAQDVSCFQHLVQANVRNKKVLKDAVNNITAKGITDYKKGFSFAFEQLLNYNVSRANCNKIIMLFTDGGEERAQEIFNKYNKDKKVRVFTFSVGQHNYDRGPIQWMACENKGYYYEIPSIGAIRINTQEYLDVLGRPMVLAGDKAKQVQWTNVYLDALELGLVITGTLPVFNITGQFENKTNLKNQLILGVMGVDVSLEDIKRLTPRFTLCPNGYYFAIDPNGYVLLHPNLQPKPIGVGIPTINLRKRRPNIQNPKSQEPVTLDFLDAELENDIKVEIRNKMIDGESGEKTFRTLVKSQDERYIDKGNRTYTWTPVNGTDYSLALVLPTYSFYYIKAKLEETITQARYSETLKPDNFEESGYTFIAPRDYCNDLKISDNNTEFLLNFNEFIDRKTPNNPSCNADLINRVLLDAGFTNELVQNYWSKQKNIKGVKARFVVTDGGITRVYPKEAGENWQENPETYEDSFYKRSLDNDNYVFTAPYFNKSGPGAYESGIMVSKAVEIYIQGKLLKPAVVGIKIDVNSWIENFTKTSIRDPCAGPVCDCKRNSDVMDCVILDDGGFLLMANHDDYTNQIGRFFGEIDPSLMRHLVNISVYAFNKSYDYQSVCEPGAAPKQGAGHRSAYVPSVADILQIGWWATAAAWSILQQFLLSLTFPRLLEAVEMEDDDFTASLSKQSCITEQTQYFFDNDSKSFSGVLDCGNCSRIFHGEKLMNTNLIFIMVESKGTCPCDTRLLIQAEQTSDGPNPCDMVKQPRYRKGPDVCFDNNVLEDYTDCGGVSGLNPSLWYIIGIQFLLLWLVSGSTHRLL
row,Ki,Compound
1,≥ 5 µM,"COc1cccc(-c2cn([C@@H]3CN[C@H](C(=O)O)C3)nn2)c1 [Example 4, (2S,4S)-4-(4-(3-methoxyphenyl)-1H-1,2,3-triazol-1-yl)pyrrolidine-2-carboxylic acid]"
2,≥ 5 µM,"N#Cc1cccc(-c2cn([C@@H]3CN[C@H](C(=O)O)C3)nn2)c1 [Example 21, (2S,4S)-4-(4-(3-cyanophenyl)-1H-1,2,3-triazol-1-yl)pyrrolidine-2-carboxylic acid]"
3,0.5 to 5 µM,"O=C(O)[C@@H]1C[C@H](n2cc(-c3ccc(Br)cc3)nn2)CN1 [Example 17, (2S,4S)-4-(4-(4-bromophenyl)-1 H-1,2,3-triazol-1-yl)pyrrolidine-2-carboxylic acid]"
4,0.5 to 5 µM,"O=C(O)[C@@H]1C[C@H](n2cc(-c3ccccn3)nn2)CN1 [Example 9, (2S,4S)-4-(4-(pyridin-2-yl)-1H-1,2,3-triazol-1-yl)pyrrolidine-2-carboxylic acid]"
5,0.5 to 5 µM,"O=C(O)[C@@H]1C[C@H](n2cc(-c3ccc(Cl)c(Cl)c3)nn2)CN1 [Example 14, (2S,4S)-4-(4-(3,4-dichlorophenyl)-1H-1,2,3-triazol-1-yl)pyrrolidine-2-carboxylic acid]"
6,< 0.5 µM,"O=C(O)[C@@H]1C[C@H](n2cc(-c3ccc(F)c(F)c3)nn2)CN1 [Example 10, (2S,4S)-4-(4-(3,4-difluorophenyl)-1H-1,2,3-triazol-1-yl)pyrrolidine-2-carboxylic acid]"
7,≥ 5 µM,"O=C(O)[C@@H]1C[C@H](n2cc(Cc3ccc(Cl)cc3)nn2)CN1 [Example 30, (2S,4S)-4-(4-(4-chlorobenzyl)-1 H-1,2,3-triazol-1-yl)pyrrolidine-2-carboxylic acid]"
8,≥ 5 µM,"Cc1cccc(-c2cn([C@@H]3CN[C@H](C(=O)O)C3)nn2)c1 [Example 8, (2S,4S)-4-(4-(m-tolyl)-1H-1,2,3-triazol-1-yl)pyrrolidine-2-carboxylic acid]"
9,≥ 5 µM,"COc1ccc(-c2cn([C@@H]3CN[C@H](C(=O)O)C3)nn2)cc1 [Example 6, (2S,4S)-4-(4-(4-methoxyphenyl)-1H-1,2,3-triazol-1-yl)pyrrolidine-2-carboxylic acid]"
10,≥ 5 µM,"CN(C)Cc1cc(F)cc(-c2cn([C@@H]3CN[C@H](C(=O)O)C3)nn2)c1 [Example 25, (2S,4S)-4-(4-(3-((dimethylamino)methyl)-5-fluorophenyl)-1 H-1,2,3-triazol-1-yl)pyrrolidine-2-carboxylic acid]"
11,< 0.5 µM,"O=C(O)[C@@H]1C[C@H](n2cc(-c3cccc(Cl)c3)nn2)CN1 [Example 2, (2S,4S)-4-(4-(3-chlorophenyl)-1H-1,2,3-triazol-1-yl)pyrrolidine-2-carboxylic acid]"
12,≥ 5 µM,"N#Cc1ccc(-c2cn([C@@H]3CN[C@H](C(=O)O)C3)nn2)cc1 [Example 22, (2S,4S)-4-(4-(4-cyanophenyl)-1H-1,2,3-triazol-1-yl)pyrrolidine-2-carboxylic acid]"
13,≥ 5 µM,"O=C(O)[C@@H]1C[C@H](n2cc(-c3cc(F)cc(F)c3)nn2)CN1 [Example 15, (2S,4S)-4-(4-(3,5-difluorophenyl)-1H-1,2,3-triazol-1-yl)pyrrolidine-2-carboxylic acid]"
14,0.5 to 5 µM,"O=C(O)[C@@H]1C[C@H](n2cc(-c3ccccc3Cl)nn2)CN1 [Example 12, (2S,4S)-4-(4-(2-chlorophenyl)-1 H-1,2,3-triazol-1-yl)pyrrolidine-2-carboxylic acid]"
15,0.5 to 5 µM,"O=C(O)[C@@H]1C[C@H](n2cc(-c3cccc(Br)c3)nn2)CN1 [Example 24, (2S,4S)-4-(4-(3-bromophenyl)-1 H-1,2,3-triazol-1-yl)pyrrolidine-2-carboxylic acid]"
16,< 0.5 µM,"O=C(O)[C@@H]1C[C@H](n2cc(-c3cccc(F)c3)nn2)CN1 [Example 1, (2S,4S)-4-(4-(3-Fluorophenyl)-1H-1,2,3-triazol-1-yl)pyrrolidine-2-carboxylic acid]"
17,≥ 5 µM,"O=C(O)[C@@H]1C[C@H](n2cc(-c3ccncc3)nn2)CN1 [Example 19, (2S,4S)-4-(4-(pyridin-4-yl)-1H-1,2,3-triazol-1-yl)pyrrolidine-2-carboxylic acid]"
18,≥ 5 µM,"COc1ccc(-c2cn([C@@H]3CN[C@H](C(=O)O)C3)nn2)c(Cl)c1 [Example 11, (2S,4S)-4-(4-(2-chloro-4-methoxyphenyl)-1H-1,2,3-triazol-1-yl)pyrrolidine-2-carboxylic acid]"
19,≥ 5 µM,"O=C(O)[C@@H]1C[C@H](n2cc(-c3ccc(Cl)cc3Cl)nn2)CN1 [Example 13, (2S,4S)-4-(4-(2,4-dichlorophenyl)-1H-1,2,3-triazol-1-yl)pyrrolidine-2-carboxylic acid]"
20,≥ 5 µM,"COc1ccccc1-c1cn([C@@H]2CN[C@H](C(=O)O)C2)nn1 [Example 3, (2S,4S)-4-(4-(2-methoxyphenyl)-1H-1,2,3-triazol-1-yl)pyrrolidine-2-carboxylic acid]"
21,≥ 5 µM,"CN(Cc1ccccc1)Cc1cc(F)cc(-c2cn([C@@H]3CN[C@H](C(=O)O)C3)nn2)c1 [Example 28, (2S,4S)-4-(4-(3-((benzyl(methyl)amino)methyl)-5-fluorophenyl)-1H-1,2,3-triazol-1-yl)pyrrolidine-2-carboxylic acid]"
22,≥ 5 µM,"O=C(O)[C@@H]1C[C@H](n2cc(-c3cncc(Cl)c3)nn2)CN1 [Example 20, (2S,4S)-4-(4-(5-chloropyridin-3-yl)-1H-1,2,3-triazol-1-yl)pyrrolidine-2-carboxylic acid]"
23,≥ 5 µM,"(2S,4S)-4-(4-(3-((benzylamino)methyl)-5-fluorophenyl)-1H-1,2,3-triazol-1-yl)pyrrolidine-2-carboxylic acid [Example 29]"
24,≥ 5 µM,"CNCc1cc(F)cc(-c2cn([C@@H]3CN[C@H](C(=O)O)C3)nn2)c1 [Example 26, (2S,4S)-4-(4-(3-fluoro-5-((methylamino)methyl)phenyl)-1H-1,2,3-triazol-1-yl)pyrrolidine-2-carboxylic acid]"
25,0.5 to 5 µM,"O=C(O)[C@@H]1C[C@H](n2cc(-c3ccccc3)nn2)CN1 [Example 7, (2S,4S)-4-(4-phenyl-1H-1,2,3-triazol-1-yl)pyrrolidine-2-carboxylic acid]"
26,≥ 5 µM,"O=C(O)[C@@H]1C[C@H](n2cc(Cc3ccccc3)nn2)CN1 [Example 16, (2S,4S)-4-(4-benzyl-1H-1,2,3-triazol-1-yl)pyrrolidine-2-carboxylic acid]"
27,≥ 5 µM,"O=C(O)[C@@H]1C[C@H](n2cc(-c3cc(Cl)cc(Cl)c3)nn2)CN1 [Example 27, (2S,4S)-4-(4-(3,5-dichlorophenyl)-1H-1,2,3-triazol-1-yl)pyrrolidine-2-carboxylic acid]"
28,≥ 5 µM,"O=C(O)[C@@H]1C[C@H](n2cc(-c3cccnc3)nn2)CN1 [Example 18, (2S,4S)-4-(4-(pyridin-3-yl)-1H-1,2,3-triazol-1-yl)pyrrolidine-2-carboxylic acid]"
29,0.5 to 5 µM,"(2S,4S)-4-(4-(4-fluorophenyl)-1 H-1,2,3-triazol-1-yl)pyrrolidine-2-carboxylic acid [Example 5]"
30,≥ 5 µM,"O=C(O)[C@@H]1C[C@H](n2cc(Cc3cccc(Cl)c3)nn2)CN1 [Example 23, (2S,4S)-4-(4-(3-chlorobenzyl)-1 H-1,2,3-triazol-1-yl)pyrrolidine-2-carboxylic acid]"

# — patent EP3741750A1, “4-(1H-1,2,3-TRIAZOL-1-YL)PYRROLIDINE-2-CARBOXYLIC ACID DERIVATIVES HAVING ACTIVITY AGAINST PAIN” (ESTEVE PHARMACEUTICALS, S.A., priority 2019, dated 2020)
